This is an account of results in patent US7618984B2, “Sulfonamide compound” (Asahi Kasei Pharma Corporation, priority 2005, dated 2009).

Assay [1] concerns phosphorylation of myosin regulatory light chain. The experiment in a line: Inhibitory action on phosphorylation of myosin regulatory light chain (Test Example 1). Type of assay: cell-based. To be noted: Neutrophil, 5 min; human peripheral blood neutrophils, 25° C. for 5 minutes; read-out: IC50, compound concentration providing a phosphorylation inhibition ratio of 50% (myosin regulatory light chain). The procedure: A volume of 50 to 100 ml of peripheral blood collected from healthy volunteers was centrifuged by using Mono-Poly separator solution (Dainippon Pharmaceutical) to prepare a neutrophil containing fraction. The neutrophils were washed with PBS(−) and resuspended in Hanks' Balanced Salt Solution (HBSS+, Gibco) to prepare a cell suspension (8×10^6/ml). The cell suspension was diluted to 5×10^6/ml, introduced into Eppendorf tubes in a volume of 0.4 ml each, then 0.1 ml each of solutions of a test compound at various concentrations were added to the suspension and allowed to react at 25° C. for 5 minutes. After the reaction, 0.1 ml of trichloroacetic acid solution was added to each reaction mixture, the reaction mixture was gently shaken and centrifuged at 12,000 rpm (4° C., 5 minutes), and the supernatant was removed. Subsequently, 3 μl of 1 M Tris solution was added to the residue, the mixture was further mixed with 50 μl of extraction buffer (8 M urea, 0.02% 2-mercaptoethanol, 0.002% bromophenol blue) and left stand at room temperature for 1 hour. Then, the reaction mixture was loaded on a spin column (0.45 μm, Millipore) to remove the insoluble solids and a sample buffer for SDS polyacrylamide gel electrophoresis (25 mM, Tris-HCl pH 6.8, 2.5% 2-mercaptoethanol, 2% sodium dodecylsulfate, 5% sucrose, 0.002% bromophenol blue as final concentrations) was added, and 10 μl of each sample was subjected to electrophoresis.
The gel after the electrophoresis was blotted on a nitrocellulose membrane (BioRad), blocked with 5% skim milk, and reacted successively with antibodies pLC1 (Sakurada K. et al, Am. J. Physiol., 274, C1563-C1572 (1998)), which specifically recognize the phosphorylated myosin regulatory light chain, and donkey anti-mouse IgG (Chemicon) conjugated with horseradish peroxidase. The band of the phosphorylated myosin regulatory light chain was detected on a film by using ECL Plus Kit (Amersham Pharmacia Biotech). This band was subjected to quantification using a densitometer. By using this value, the inhibitory ratio (%) for phosphorylation of the myosin regulatory light chain was calculated by using the following equation. Phosphorylation inhibition ratio(%)=1−(Band intensity of phosphorylated myosin regulatory light chain with addition of the test compound/Band intensity of phosphorylated myosin regulatory light chain without addition of the test compound)×100
Further, the phosphorylation inhibition ratio was calculated with changing the concentrations of the test compound, and a compound concentration providing an inhibition ratio of 50% was obtained as IC50.

Assay [2] has as its system rabbit normal intraocular pressure. The experiment in a line: Intraocular pressure reducing action (Test Example 2). Conditions: Oryctolagus cuniculus, topical; 3 mM aqueous solution, 50 μl to the left eye; measured after 2, 4 and 6 hours; read-out: intraocular pressure reducing degree (max ΔIOP / intraocular pressure value immediately before administration × 100). The format is in vivo, Japanese white rabbit. As for the experimental part: A Japanese white rabbit having a body weight of about 2 kg was placed in a positioner and naturalized for one week before the experiment. An opthalmologic local anesthesant (Benoxil) was administered to both eyes, and then intraocular pressure was measured by using a tonometer (Classic 30, Solan). A 3 mM aqueous solution of a test compound was administered in a volume of 50 μl to the left eye, and the right eye was not treated (control eye). The intraocular pressure values were measured for the left and right eyes immediately before, and 2, 4 and 6 hours after the administration of the aqueous solution of the test compound, and the difference of the measured values for the left and right eyes was considered an intraocular pressure reduction value of the test medicament at each measurement time. The largest difference of the values for the left and right eyes among the measured values at the measurement times (after 2, 4 and 6 hours) was considered the maximum intraocular pressure reduction value (max ΔIOP) of each test medicament. The intraocular pressure reducing degree representing the intraocular pressure reducing action of each test medicament was calculated according to the following formula. Since rabbits show significant daily variation of intraocular pressure, daily variation is added when change of intraocular pressure is measured over time, and the intraocular pressure reducing action may be overestimated. Therefore, we used this calculation method of intraocular pressure reduction value in order to minimize the influence of the variation. Intraocular pressure reducing degree (%)=(max ΔIOP/Intraocular pressure value immediately before administration)×100

Another assay deals with neutrophils. The experiment in a line: Neutrophil migration inhibitory action, Boyden Chamber, FMLP (Test Example 3). Type of assay: cell-based. Conditions: 0.5 h, human neutrophils, FMLP 1 μM, 37° C., 30 minutes, read-out: IC50, compound concentration providing a migration inhibition ratio of 50%. The procedure:
Neutrophils were isolated from 50 to 100 ml of peripheral blood collected from healthy human donors by the method described in Test Example 1 to obtain a cell suspension (8×10^6/ml). Subsequently, solutions of a test compound at various concentrations were introduced into wells of a 96-well plate in a volume of 125 μl per well, the cell suspension of an equivalent volume was added to it and the plate was preincubated at room temperature for 5 minutes. During the preincubation, FMLP (1 μM, Sigma) solution was added to the lower chamber to set Boyden Chamber, the preincubated cell suspension was added to the upper chamber in a volume of 200 μl per well, and the cells were allowed to migrate at 37° C. under 5% carbon dioxide for 30 minutes. The filter after the migration was collected, and the non-migrated cells adhered to the surface that faced the upper chamber were carefully wiped off. Then, the migrated cells on the back surface were stained with DifQuick dye solution (International Reagents), washed with water and dried, and then absorbance was measured at 595 nm. The inhibition ratio against migration (%) of a test compound was calculated by using the following equation: Migration inhibition ratio(%)=(1−Absorbance of the group with addition of test compound/Absorbance of the group without addition of test compound)×100
Further, the migration inhibitory ratio was calculated with changing the test compound concentration, and a compound concentration providing an inhibition ratio of 50% was obtained as IC50.

Assay [3] has as its system rabbit intraocular pressure. The experiment in a line: Rabbit intraocular pressure reduction enhancing action, combination use (Test Example 6-1). The format is in vivo, Japanese white rabbit. To be noted: 50 μL, difference of left and right eyes, 2, 4 and 6 hours. The procedure: However, the effect is not limited to the 19-1 compound, and the ophthalmic solution concentration of the 19-1 compound is not limited to those used in this test example. Moreover, as for the test compound used for combination use, similar effect can be obtained also with the compounds of the present invention represented with the example numbers mentioned in Test Example 2.
As a test compound, the 19-1 compound was dissolved in physiological saline, and the solution was neutralized by addition of sodium hydroxide (pH 7.0 to 8.0) to prepare a 0.01 weight % aqueous solution (19-1 compound aqueous solution). As the drugs for combination use, isopropyl unoprostone (trade name: Rescula, Santen Pharmaceutical) was used as a prostaglandin-related drug, and brinzolamide hydrochloride (trade name: Azopt, Alcon Japan) was used as […], as the marketed formulations as they were.
A Japanese white rabbit having a body weight of about 2 kg was placed in a positioner and naturalized for one week before the experiment. An opthalmologic local anesthesant (Benoxil) was administered to both eyes, and then intraocular pressure before instillation was measured by using a tonometer (Classic 30, Solan). A test aqueous solution or the drug for combination use was administered to the left eye, and the right eye was not treated (control eye). The test groups consisted of (1) control group, (2) group instilled only with the 19-1 compound aqueous solution (single drug group 1), (3) group instilled only with the drug for combination use (single drug group 2), and (4) group instilled with the drug for combination use and the 19-1 compound aqueous solution (combination use group), and six rabbits were used for each group. As for the rabbits of these groups, 50 μL of physiological saline was first instilled to the control group, single drug group 1, and single drug group 2, and the drug for combination use was first instilled in the same volume to the combination use group. […] The intraocular pressure thereafter was measured for each group 2, 4 and 6 hours after the second administration of the test compound, and the difference of the measured values for the left and right eyes at each measurement time was considered an intraocular pressure reduction value of each group. The largest difference of the intraocular pressure values for the left and right eyes among those of the measured values of the measurement times was considered the maximum intraocular pressure reduction value (max ΔIOP) of each drug group.

Structures can show the parent of a compound that is named as a salt. Some results are limits rather than exact numbers.

Take `N[C@@H]1CCN(S(=O)(=O)c2cccc3cncc(Cl)c23)C1` [Example 19-2, (R)-3-Amino-1-(4-chloro-5-isoquinolinesulfonyl)pyrrolidine]: the figures for the IC50 (in assay [1]; in the assay on neutrophils) were less than 10 µM and 10 to 40 µM, respectively. In assay [2], the inhibition in vivo at 3000 µM is no less than 20%.

Regarding `Cc1cncc2cccc(S(=O)(=O)N3CCC[C@H](N)C3)c12` [Example 22-1, (S)-3-Amino-1-(4-methyl-5-isoquinolinesulfonyl)piperidine], the IC50 in assay [1] is less than 10 µM; in the assay with neutrophils it was 10 to 40 µM. For the same molecule, the inhibition in vivo at 3000 µM in assay [2] was in the range of 10 to 20%.

On to `Cc1cncc2cccc(S(=O)(=O)N3CCC[C@@H](N)C3)c12` [Example 22-2, (R)-3-Amino-1-(4-methyl-5-isoquinolinesulfonyl)piperidine], for which the IC50 in assay [1] was less than 10 µM; in the assay with neutrophils, 10 to 40 µM. Further, the inhibition in vivo at 3000 µM in assay [2] was 10 to 20%.

Consider `CCc1cncc2cccc(S(=O)(=O)N3CC[C@H](N)C3)c12` [Example 23-1, (S)-3-Amino-1-(4-ethyl-5-isoquinolinesulfonyl)pyrrolidine], for which the IC50 was less than 10 µM in assay [1] and 10 to 40 µM in the assay on neutrophils. In assay [2], the inhibition in vivo at 3000 µM lay in the range of 10 to 20%.

On to `Cc1cnc(O)c2cccc(S(=O)(=O)N3CC[C@H](N)C3)c12` [Example 25-1, (S)-3-Amino-1-(1-hydroxy-4-methyl-5-isoquinolinesulfonyl)pyrrolidine], for which the IC50 (in assay [1]; in the assay on neutrophils) was less than 10 µM in each case. Also, the inhibition in vivo at 3000 µM in assay [2] lay within 10 to 20%.

For `Cc1cncc2cccc(S(=O)(=O)N3CC(N)C3)c12` [Example 26, 3-Amino-1-(4-methyl-5-isoquinolinesulfonyl)azetidine], the IC50 in assay [1] is less than 10 µM; with neutrophils, 10 to 40 µM. The inhibition in vivo at 3000 µM in assay [2] is 5 to 10%.

For `CN[C@@H]1CCN(S(=O)(=O)c2cccc3cncc(C)c23)C1` [Example 27, (R)-3-(Methylamino)-1-(4-methyl-5-isoquinolinesulfonyl)pyrrolidine], the IC50 in assay [1] is less than 10 µM; in the assay on neutrophils, 10 to 40 µM. In assay [2], the inhibition in vivo at 3000 µM lay in the range of 5 to 10%.

Take `CN[C@@H]1CCN(S(=O)(=O)c2cccc3cncc(Cl)c23)C1` [Example 32-2, (R)-1-(4-Chloro-5-isoquinolinesulfonyl)-3-(methylamino)pyrrolidine]: the IC50 in assay [1] was less than 10 µM; with neutrophils, 10 to 40 µM. Also, in assay [2], the inhibition in vivo at 3000 µM was in the range of 10 to 20%.

Consider `CN[C@H]1CCN(S(=O)(=O)c2cccc3c(O)ncc(Cl)c23)C1` [Example 36-1, (S)-1-(1-Hydroxy-4-chloro-5-isoquinolinesulfonyl)-3-(methylamino)pyrrolidine], for which the IC50 (in assay [1]; in the assay on neutrophils) was less than 10 µM each time. Also, the inhibition in vivo at 3000 µM in assay [2] fell in the range of 10 to 20%.

For `CCN[C@H]1CN(CCCOC)S(=O)(=O)c2sc(S(N)(=O)=O)cc21` [brinzolamide hydrochloride, reference compound], in assay [3] (0.01 weight % 19-1 compound aqueous solution and/or brinzolamide hydrochloride (Azopt)), the “Max ΔIOP (maximum intraocular pressure reduction value), Table 2” value is listed as 2.3 mmHg.

Consider `CCCCCCCC(=O)CC[C@@H]1[C@@H](C/C=C\CCCC(=O)OC(C)C)[C@@H](O)C[C@H]1O` [isopropyl unoprostone, reference compound], for which the “Max ΔIOP (maximum intraocular pressure reduction value), Table 3” value in assay [3] (0.01 weight % 19-1 compound aqueous solution and/or isopropyl unoprostone (Rescula)) is 4.4 mmHg.
